Marks after values point to notes of the source that are not given here.
Tests used:
[1] = test system: SW620 human colon carcinoma xenograft; experiment: In vivo antitumor efficacy with temozolomide, SW620 xenograft
LoVo xenografts = experiment: In vivo antitumor efficacy with irinotecan, LoVo xenograft; set-up: species or system mice; conditions: once weekly × 3
Text: In no combination study was antagonism observed.

[2] = Plasma and tumor levels by HPLC/MS in mice bearing SW620 xenograft; assay type: in vivo
Description: In a parallel study plasma and tumor levels of the compound of formula 1 were measured by an HPLC/MS assay. In addition the degree of inhibition of tumor PARP catalytic activity was assessed using P^32-NAD incorporation into poly-ADP-ribose polymer in homogenates from SW620 tumors of treated animals. […] PARP catalytic activity was inhibited by 50% at 6 h and by 25% at 24 h.

PARP = experiment: Tumor PARP catalytic activity, 32P-NAD incorporation in SW620 tumor homogenates of treated animals; assay type: in vivo, mice
Description: Tumours were excised and were snap frozen in liquid nitrogen and stored at −80° C. until homogenised for analysis. The specimen was defrosted on ice and the wet weight documented. The tissue was homogenised using a Pro 2000 instrument (Pro Scientific Inc, Monroe, Conn., USA) in 3 volumes (i.e. 1 mg plus 3 μl isotonic buffer −7 mM Hepes, 26 mM KCl, 0.1 mM dextran, 0.4 mM EGTA, 0.5 mM MgCl2, 45 mM sucrose, pH 7.8), giving a homogenate with an overall dilution of 1 in 4. The homogenate was kept on ice throughout the process, and homogenisation was performed in 10 second bursts to prevent undue warming of the sample. Prior to assay the samples were further diluted with isotonic buffer where necessary to give a final dilution of 1 in 40 for [^32P]NAD incorporation assay or 1 in 1000 for immunoblot aaasy.
Briefly, cells were suspended in hypotonic buffer (9 mM HEPES pH 7.8, 4.5% (v/v) dextran, 4.5 mM MgCl2 and 5 mM DTT) at 1.5×10^7/ml on ice for 30 minutes then 9 vol of isotonic buffer (40 mM HEPES pH 7.8, 130 mM KCl, 4% (v/v) dextran, 2 mM EGTA, 2.3 mM MgCl2, 225 mM sucrose and 2.5 mM DTT) was added. The reaction was started by adding 300 μl cells to 100 μl 300 μM NAD^+ containing [^32P]-NAD^+ (Amersham, UK), and terminated by the addition of 2 ml ice cold 10% (w/v) TCA+10% (w/v) sodium pyrophosphate. After 30 min on ice the precipitated ^32P—labelled ADP-ribose polymers were filtered on Whatman GC/C filters (Whatman Intemational Ltd, Kent, UK), washed 5 times with 1% (v/v) TCA/1% (v/v) sodium pyrophosphate, dried and counted. PARP inhibitory IC50 values were calculated from computer-fitted curves (GraphPad Software, Inc., San Diego, Calif.).
Tumour homogenates were assayed in a similar manner; however, the homogenisation process introduces sufficient DNA damage to maximally stimulate PARP activity and oligonucleotide was not therefore required. Results were expressed in terms of pmol PAR former per mg tumour.
Preparation of Tumour/Tissue Samples • 1. The frozen tumour samples are weighed. • 2. 3 volumes (i.e. 3 μl solution added for each 1 mg tissue) of isotonic buffer plus DTT is added to the tumour sample. This is stored on ice until and during homogenisation. • 3. The sample is homogenised on ice within a Class II cabinet for 10-second bursts until no detectable macroscopic pieces of tissue are visible. • 4. Sufficient volume of the homogenate is diluted 1 in 10 with isotonic buffer plus DTT to provide an overall dilution of 1 in 40 from the original sample. A final volume of 3 ml is sufficient for triplicate sampling and a subsequent protein assay. • 5. The diluted homogenate is stored on ice and assayed within one hour as below.
PARP Assay of Tumour/Tissue Samples • 1. ^32P 600 μM NAD solution is prepared fresh on the day of experiment as detailed above. Oligonucleotide stock is removed from storage and defrosted. • 2. Water bath is warmed to 26° C. and set to agitate at 70 oscillations per minute.
3. Reaction test tubes are set up as per table A for the QC samples and as per table B for the homogenate.
• 4. Each QC sample is assayed in triplicate, with T0, +oligo and −oligo samples ×3. (Total of 9 tubes per sample, if low cell counts −oligo samples are omitted.) Homogenates are also assayed in triplicate, with T0 and reaction samples ×3. (Total 6 tubes per sample). • 5. 2 ml ice cold 10% TCA+10% NaPPi is added to the T0 tubes prior to addition of homogenate or cells, to correct for non-specific binding of radio-label to the filter. • 6. Reaction test tubes homogenates and QC cells are warmed in the water bath to 26° C. for 7 minutes. • 7. Each preparation is vortexed briefly and the reaction is started by adding 300 μl of this to each reaction tube. • 8. The reaction is stopped exactly 6 minutes after addition of homogenate by adding 2 ml of ice cold 10% TCA+10% NaPPi and vortexing. • 9. The tube is then incubated on ice for at least one hour prior to filtration. • 10. […]

CNCc1ccc(-c2[nH]c3cc(F)cc4c3c2CCNC4=O)cc1.O=P(O)(O)O [Compound I, phosphate salt of 8-fluoro-2-{4-[(methylamino)methyl]phenyl}-1,3,4,5-tetrahydro-6H-azepino[5,4,3-cd]indol-6-one]
single-agent antitumor effects ([1]; Compound I alone): no single-agent antitumor effects

CNCc1ccc(-c2[nH]c3cc(F)cc4c3c2CCNC4=O)cc1.O=C[C@H](O)[C@@H](O)[C@H](O)[C@H](O)C(=O)O [compound of formula 1 glucuronate salt]
Enhancement (%) (LoVo xenografts; irinotecan 25 mg/kg i.p. + 0.0 mg/kg i.p. (glucuronate salt)): 0%
Enhancement (%) (LoVo xenografts; irinotecan 25 mg/kg i.p. + 0.15 mg/kg i.p. (glucuronate salt)): 71%
Enhancement (%) (LoVo xenografts; irinotecan 25 mg/kg i.p. + 0.5 mg/kg i.p. (glucuronate salt)): 86^f %
Plasma compound of formula 1 ([2]; 0.1 mg/kg i.p. as glucuronate salt + temozolomide 68 mg/kg p.o., 0.5 h): 12.7 ± 2.3 ng/mL
Plasma compound of formula 1 ([2]; 0.1 mg/kg i.p. as glucuronate salt + temozolomide 68 mg/kg p.o., 6 h): 0.0 ± 0.0 ng/mL
Plasma compound of formula 1 ([2]; 0.1 mg/kg i.p. as glucuronate salt + temozolomide 68 mg/kg p.o., 24 h): 0.0 ± 0.0 ng/mL
Plasma compound of formula 1 ([2]; 1.0 mg/kg i.p. as glucuronate salt + temozolomide 68 mg/kg p.o., 0.5 h): 92.0 ± 28.0 ng/mL
Plasma compound of formula 1 ([2]; 1.0 mg/kg i.p. as glucuronate salt + temozolomide 68 mg/kg p.o., 6 h): 4.7 ± 4.0 ng/mL
Plasma compound of formula 1 ([2]; 1.0 mg/kg i.p. as glucuronate salt + temozolomide 68 mg/kg p.o., 24 h): 0.0 ± 0.0 ng/mL
Plasma compound of formula 1 ([2]; 10 mg/kg i.p. as glucuronate salt + temozolomide 68 mg/kg p.o., 0.5 h): 1532 + 134 ng/mL
Plasma compound of formula 1 ([2]; 10 mg/kg i.p. as glucuronate salt + temozolomide 68 mg/kg p.o., 6 h): 98.0 ± 28.0 ng/mL
Plasma compound of formula 1 ([2]; 10 mg/kg i.p. as glucuronate salt + temozolomide 68 mg/kg p.o., 24 h): 17.8 ± 29.5 ng/mL
PARP Activity (%) (PARP; 0.1 mg/kg i.p. glucuronate salt + temozolomide 68 mg/kg, 0.5 h): 77.6 ± 13.3%
PARP Activity (%) (PARP; 0.1 mg/kg i.p. glucuronate salt + temozolomide 68 mg/kg, 6 h): 90.2 ± 11.5%
PARP Activity (%) (PARP; 0.1 mg/kg i.p. glucuronate salt + temozolomide 68 mg/kg, 24 h): 100.4 ± 7.5%
PARP Activity (%) (PARP; 1.0 mg/kg i.p. glucuronate salt + temozolomide 68 mg/kg, 0.5 h): 24.9 ± 16.2%
PARP Activity (%) (PARP; 1.0 mg/kg i.p. glucuronate salt + temozolomide 68 mg/kg, 6 h): 68.6 ± 36.2%
PARP Activity (%) (PARP; 1.0 mg/kg i.p. glucuronate salt + temozolomide 68 mg/kg, 24 h): 70.2 ± 19.0%
PARP Activity (%) (PARP; 10 mg/kg i.p. glucuronate salt + temozolomide 68 mg/kg, 0.5 h): 3.4 ± 1.4%
PARP Activity (%) (PARP; 10 mg/kg i.p. glucuronate salt + temozolomide 68 mg/kg, 6 h): 4.8 ± 0.87%
PARP Activity (%) (PARP; 10 mg/kg i.p. glucuronate salt + temozolomide 68 mg/kg, 24 h): 18.3 ± 12.7%
Enhancement (%) ([1]; SW620, 0.1 mg/kg i.p. glucuronate salt + temozolomide 68 mg/kg p.o., QD×5): 28^g %
Enhancement (%) ([1]; SW620, 1.0 mg/kg i.p. glucuronate salt + temozolomide 68 mg/kg p.o., QD×5): ≧100^g %
body weight loss ([1]; SW620, temozolomide 68 mg/kg + 0.05 or 0.15 mg/kg glucuronate salt QD×5): No body weight loss
complete remission rate ([1]; SW620, temozolomide 68 mg/kg + 0.15 or 0.5 mg/kg glucuronate salt QD×5): 100%
Enhancement (%) ([1]; SW620, temozolomide 68 mg/kg oral + 0.05 mg/kg i.p. (glucuronate salt), once daily for 5 days): 35%
Enhancement (%) ([1]; SW620, temozolomide 68 mg/kg oral + 0.15 mg/kg i.p. (glucuronate salt), once daily for 5 days): 270^f %
Enhancement (%) ([1]; SW620, temozolomide 68 mg/kg oral + 0.5 mg/kg i.p. (glucuronate salt), once daily for 5 days): >60^f, g %

— patent publication US20060074073A1, “Therapeutic combinations comprising poly (ADP-ribose) polymerases inhibitor” (AGOURON PHARMACEUTICALS, INC., priority 2004, published 2006)
